In the supplement of paper PMC10307832:

Experiments:
Test in all cases: relative viability (nuclei count vs DMSO), 5 days (fraction); higher = more cells survive
[1] = compound: CC1=CC(=C(N1C2=CC=C(C=C2)Cl)C)C(=O)CN3CCCCC3 [IU1-47] + O=C(CCCCCCC(=O)Nc1ccccc1)NO [Vorinostat] (partner 1 µM)
Summary of the method: (§1)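 Cells from lung cancer lines were seeded into 1536-well plates and, one day later, dosed by pin tool. Treatments were either a single drug or a fixed dose of an anchor drug with five library-drug doses (not always all listed) in √10 steps. After 5 days, nuclei were stained in a one-step fixation (final 0.05% Triton X-100, 1% formaldehyde, 1 ug/ml Hoechst) and counted on 4× images, and relative viability is the treated-to-vehicle nuclei ratio, as the median of duplicate plates.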

[2] = compound: CC1=CC(=C(N1C2=CC=C(C=C2)Cl)C)C(=O)CN3CCCCC3 [IU1-47] + Nc1ncn([C@H]2C[C@H](O)[C@@H](CO)O2)c(=O)n1 [Decitabine] (partner 2 µM)
Summary of the method: as §1

[3] = compound: Cc1nc(C(=O)NCC(=O)O)c(O)c2ccc(Oc3ccccc3)cc12 [FG-4592] + CS(=O)(=O)CCNCc1ccc(-c2ccc3ncnc(Nc4ccc(OCc5cccc(F)c5)c(Cl)c4)c3c2)o1 [Lapatinib] (partner 2 µM)
Summary of the method: as §1

[4] = compound: Cc1nc(C(=O)NCC(=O)O)c(O)c2ccc(Oc3ccccc3)cc12 [FG-4592] + Cc1nc(NC(=O)N2CCC[C@H]2C(N)=O)sc1-c1ccnc(C(C)(C)C(F)(F)F)c1 [Alpelisib] (partner 2 µM)
Summary of the method: as §1

| Cell Line | relative viability ([1]; first compound 0.08 µM) | relative viability ([1]; first compound 0.253 µM) | relative viability ([1]; first compound 0.8 µM) | relative viability ([1]; first compound 2.53 µM) | relative viability ([1]; first compound 8 µM) | relative viability ([2]; first compound 0.08 µM) | relative viability ([2]; first compound 0.253 µM) | relative viability ([2]; first compound 0.8 µM) | relative viability ([2]; first compound 2.53 µM) | relative viability ([2]; first compound 8 µM) | relative viability ([3]; first compound 0.08 µM) | relative viability ([3]; first compound 0.253 µM) | relative viability ([3]; first compound 0.8 µM) | relative viability ([3]; first compound 2.53 µM) | relative viability ([3]; first compound 8 µM) | relative viability ([4]; first compound 0.08 µM) | relative viability ([4]; first compound 0.253 µM) | relative viability ([4]; first compound 0.8 µM) | relative viability ([4]; first compound 2.53 µM) | relative viability ([4]; first compound 8 µM) |
| --- | --- | --- | --- | --- | --- | --- | --- | --- | --- | --- | --- | --- | --- | --- | --- | --- | --- | --- | --- | --- |
| NCI-H650 | 0.61 | 0.562 | 0.451 | 0.37 | 0.483 | 0.369 | 0.333 | 0.27 | 0.334 | 0.291 | 0.633 | 1.03 | 0.744 | 0.728 | 0.802 | 1.03 | 1.01 | 1.04 | 0.939 | 0.881 |
| NCI-H661 | 0.805 | 0.861 | 0.798 | 0.836 | 0.761 | 0.531 | 0.575 | 0.596 | 0.556 | 0.503 | 0.446 | 0.462 | 0.578 | 0.473 | 0.403 | 0.386 | 0.581 | 0.626 | 0.835 | 0.727 |
| NCI-H727 | 1.26 | 1.38 | 1.21 | 1.13 | 1.11 | 0.875 | 0.894 | 0.989 | 0.722 | 0.866 | 0.632 | 0.809 | 0.742 | 0.754 | 0.863 | 0.533 | 0.582 | 0.545 | 0.56 | 0.561 |
| NCI-H838 | 0.768 | 0.746 | 0.834 | 0.689 | 0.64 | 0.423 | 0.451 | 0.471 | 0.501 | 0.449 | 0.976 | 1.02 | 0.901 | 0.822 | 0.966 | 0.877 | 0.933 | 0.98 | 1.01 | 0.816 |
| NCI-H1355 | 0.72 | 0.646 | 0.674 |  | 0.518 | 0.364 | 0.342 | 0.348 |  | 0.349 | 1.03 | 0.939 |  | 0.955 | 0.823 | 0.797 | 0.788 |  | 0.869 | 0.743 |
| NCI-H1395 | 0.676 | 0.798 | 0.611 | 0.517 | 0.605 | 0.687 | 0.802 | 0.699 | 0.704 | 0.713 | 1.19 | 0.935 |  | 0.967 | 0.662 | 0.973 | 0.914 |  | 0.896 | 0.693 |
| NCI-H1437 | 0.807 | 0.801 | 0.81 | 0.735 | 0.801 | 0.573 | 0.513 | 0.658 | 0.63 | 0.547 | 0.883 | 0.817 | 0.8 | 0.677 | 0.499 | 0.997 | 0.958 | 1.01 | 1.05 | 0.706 |
| NCI-H1651 | 0.559 | 0.558 | 0.556 | 0.531 | 0.495 | 0.627 | 0.672 | 0.522 | 0.357 | 0.579 | 0.744 | 0.883 | 0.741 | 0.826 | 0.706 | 0.925 | 0.888 | 1.03 | 0.95 | 0.816 |
| NCI-H1666 | 0.961 | 0.984 | 1.08 | 1.1 | 1.03 | 0.802 | 0.714 | 0.718 | 0.738 | 0.784 | 0.617 | 0.519 | 0.485 | 0.519 | 0.456 | 0.866 | 0.862 | 0.953 | 0.886 | 0.644 |
